Consider two compounds from PMC9468151, “Identification of a binding site on soluble RANKL that can be targeted to inhibit soluble RANK-RANKL interactions and treat osteoporosis” (Nature Communications, 2022).

Series [1] relates to OVX rats. The series can be described thus: Osteoporosis biomarkers determination in rat serum (ELISA). The class given is in vivo. Details: OCN / RANKL / PINP / CTX-I / Glu-OCN: unit not given here. Particulars: serum; OVX + compound; individual animals. On the procedure: Change of rat osteoporosis biomarkers after treating with S3-15 were determined by enzyme-linked immunosorbent assay (ELISA). […] serum biomarkers including CTX-I (C-terminal telopeptide of type I collagen), OC(Osteocalcin), PINP (Procollagen I N-Terminal propeptide), and RANKL(Receptor activator of nuclear factor-κB ligand). Rat blood was collected from aortaventralis after anesthesia, and centrifuged in 14000 × g at 4 °C to get the serum samples. The protein contents of those biomarkers in serum samples were detected according to manufacturer’s instruction (CTX-I and OC, Systems IDS, UK; RANKL, R&D Systems, USA; PINP, USCN Life Science, Inc., China.).
On the technique in general: An ELISA detects its analyte on a solid surface through an enzyme-linked reagent.

Series [2] concerns C3H10T1/2. As to the kind of experiment: C3H10T1/2 proliferation and osteoblastic mineralization. The class given is cell-based, mouse. The conditions noted are these: C3H10T1/2 or human primary osteoblasts, osteogenic differentiation medium. The protocol: Supplementary Fig.5. In Vitro Activity Evaluation and Signal Pathway Study of compound S3-15. a Western blot of PI3K and AKT phosphorylation in RAW264.7 cells treating with or without S315 and sRANKL at different point-in-time. b EC50 curve and representative OC microphotographs of mature osteoclasts apoptosis assay with S3-15. n=3 biological replicates for each concentration. EC50 values were calculated by GraphPad Prism 8 software. c EC50 curve and representative OC microphotographs of mature osteoclasts apoptosis assay with S3, S3-03 and S3-05. n=3 biological replicates for each concentration. EC50 values were calculated by GraphPad Prism […]
pits in dose-dependent manner (mouse BMMs). e Precursor osteoblasts C3H10T12 proliferation-promoting of S3, S3-05 and S3-15. f Osteoblastic mineralization after treatment with S3, S3-05 and S3-15. C3H10T12 cells were cultured in osteoblast induction differentiation medium with or without treatment for 14 days and determinate of calcium deposition in differentiated osteoblasts by Alizarin red staining. Error bars represent ± s.d. n=3. Statistical difference was determined by unpaired two-tailed Student’s t test. Significant difference p value is < 0.05. Scale […]
(1 picture or pasted object on this page, not shown here)

Series [3] in a line: Pharmacokinetic studies in rat. Also on record: unit not given here. The class given is in vivo.
Series [4] deals with OVX rats. As to the kind of experiment: Osteoporosis therapeutic study in OVX rats (micro-CT). Details: Tb.N: unit not given beside the values. The class given is in vivo, rat. The conditions noted are these: for BV/TV / Tb.N / Tb.Sp / Tb.Th: OVX + compound, individual animals; for BV/TV of OVX rats: oral 10 mg/kg/day, 12 weeks, in words. The protocol: Female SD rats or C57BL/6 mice were cared until they grown up to 6 months old or 10 weeks old, respectively. Then we subjected them to either bilateral ovariectomy or sham operation after anesthesia with 10% chloral hydrate (0.3 mL/100 g). Then all the rats or mice were intramuscular injected of penicillin to prevent infection in the first week of surgery. For rat experiments, after 12 weeks of operation, 3 rats from sham-operated or ovariectomized groups were random selected to determine bone mass by micro-CT imaging biopsy to verify successful produced bone loss(data unshown). Then the OVX rats were individually administrated with S3-15, S3, and S3-05 orally with (10 mg/kg/day) for another 12 weeks. For mouse experiments, after 4 weeks of surgery, the OVX mice were treated with 10 mg/kg/day S3-15 for another 4 weeks.
The weight of rats or mice were recorded every week in the treatment period. After treatment, the rats were harvested, the serum, heart, liver, spleen, lung, kidney, thymus, and femurs were all collected and subjected to subsequent analysis. The right femurs of rats or mice were cleaned excess soft tissue, fixed in 10% formalin, and processed them for microcomputed tomography (micro-CT) analysis. Left mice femurs were collected and excarnate for biomechanical strength testing. Mice peripheral blood were as well as collected for flow cytometry analyzing.
The right femurs of rats or mice were further analyzed with micro-CT on Inveon PET/CT (Siemens, Germany). We used micro-CT to scan the femur from the femoral head to the femoral condyle, using 19 μm resolution, 80 kV 500uA, 360 projection, 3000-6000 image threshold, full rotation cone beam. Three-dimensional reconstruction and histomorphometric analyses of trabecular bone were conducted with the IAW (Inveon analysis workstation) analysis software. The trabecular extended 1 mm (rat) or 0.5 mm (mice) proximally to the end of the distal growth plate over 2 mm (rats) or 1 mm (mice) toward the diaphysis was selected as the region of interest (ROI) for the analysis. The resulting two-dimensional images of trabecular bone in relative cross sections were shown in grayscale. Trabecular bone parameters were measured including bone volume/tissue volume (BV/TV), bone surface area/bone volume (BS/BV), trabecular number (Tb.N), trabecular thickness (Tb.Th), trabecular separation(Tb.Sp) and trabecular pattern factor(Tb.P.F).

For series [5], the system named is RAW264.7 cells. As to the kind of experiment: In vitro cytotoxicity assay (MTT). The class given is cell-based, mouse. In outline: (§1)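 Log-phase cells were seeded at 6 × 10^3 per well and incubated 24 h, with viability read by MTT. Growth inhibition (%) was calculated from OD relative to vehicle wells. CC50 came from nonlinear regression curve fitting.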
A short description of series [6]: In vitro cytotoxicity assay (MTT). The class given is cell-based, mouse. Particulars: mouse, RAW264.7 cells; for viability at 24 h, 0.08 μM: conc. 0.08 μM; for viability at 24 h, 0.08 μM / viability at 24 h, 0.28 μM / viability at 24 h, 0.92 μM / viability at 24 h, 3.03 μM / viability at 24 h, 10 μM: read-out: cell viability relative to 0 μM (fig. S5e); for viability at 24 h, 0.28 μM: conc. 0.28 μM; for viability at 24 h, 0.92 μM: conc. 0.92 μM; for viability at 24 h, 3.03 μM: conc. 3.03 μM; for viability at 24 h, 10 μM: conc. 10 μM; for CC50 at 24 h: RAW264.7, MTT. In outline: as §1

SMILES strings stand for the structures. Where “and” joins values, the source holds several entries; their conditions need not be identical. Equal values may be shown once.

As to `CCOC(=O)c1sc(NC(=O)/C(=N/Nc2ccccc2C(=O)O)C(C)=O)nc1C` [S3, (E)-2-(2-(1-((5-(ethoxycarbonyl)-4-methylthiazol-2-yl)amino)-1,3-dioxobutan-2-ylidene) hydrazinyl) benzoic acid], in series [1], the CTX-I is 21.3236 and 22.8572 and 16.6793 and 10.172 and 21.7818 and 24.1752 and 24.2142 and 25.7828; the Glu-OCN was 19.4432 and 20.3365 and 14.3331 and 16.8798 and 23.559 and 26.5413 and 32.3597 and 27.0763; the OCN is 79.4709 and 101.933 and 71.1854 and 74.676 and 124.633 and 154.593 and 174.247 and 198.288; the PINP is 3388.13 and 10860 and 11369.2 and 5541.99 and 4144.03 and 7092.56 and 5050.08 and 5955.78. Further, in series [1], the RANKL is 139.364 and 152.091 and 195.727 and 181.182 and 193.909 and 213.909 and 163 and 128.454. In addition, in series [2], the “cell proliferation and mineralization” value was “increase cell proliferation and mineralization”. The “plasma concentration-time (fig. S2c)” value in series [3] (time 28 h) was 0.7405 and 0.07032 and 0.1222. The “plasma concentration-time (fig. S2c)” value in series [3] (time 36 h) was 0.6382 and 0.07762 and 0.02166. Besides, in series [4], the BV/TV is 0.3479 and 0.4471 and 0.777 and 0.287 and 0.2327 and 0.4826 and 0.4913; the Tb.N is 0.07107 and 0.08431 and 0.1472 and 0.07083 and 0.06968 and 0.09727 and 0.1011; the Tb.Sp is 0.1332 and 0.1043 (2×) and 0.04227 and 0.1759 and 0.2298 and 0.1047; the Tb.Th was 4.895 and 5.303 and 5.277 and 4.053 and 3.339 and 4.961 and 4.861. In addition, in series [4], the “BV/TV of OVX rats” value is reported as “increased”. Besides, the “cell viability relative to 0 μM (fig. S5e)” value in series [5] (conc. 0.08 μM) was 118.628 and 117.348. Besides, in series [5] (conc. 0.28 μM), the “cell viability relative to 0 μM (fig. S5e)” value is 120.489 and 117.697. Also, in series [5] (conc. 0.92 μM), the “cell viability relative to 0 μM (fig. S5e)” value is 125.722 and 127.234. The “cell viability relative to 0 μM (fig. S5e)” value in series [5] (conc. 3.03 μM) was 128.164 and 131.886. In addition, the “cell viability relative to 0 μM (fig. S5e)” value in series [5] (conc. 10 μM) is 130.258 and 129.909. For the same compound, in series [6], the viability at 24 h, 0.08 μM came out at 105%; the viability at 24 h, 0.28 μM came to 107%; the viability at 24 h, 0.92 μM amounted to 111%; the viability at 24 h, 3.03 μM was 121%. In series [6], the viability at 24 h, 10 μM was 120% and the half-maximal cytotoxic concentration (CC50) at 24 h turned out to be 44.6 µM.
Regarding `CCOC(=O)c1sc(NC(=O)/C(=N/Nc2ccc(O)cc2C(=O)O)C(C)=O)nc1C` [S3-05], in series [1], the CTX-I was 12.9391 and 9.961 and 23.5145 and 16.5322 and 12.0463 and 14.1264 and 13.0825 and 21.4762; the Glu-OCN is 23.1879 and 10.5179 and 18.8663 and 21.4957 and 14.7477 and 20.9157 and 18.2902 and 26.5413; the OCN was 109.522 and 50.9168 and 121.686 and 154.593 and 50.4316 and 135.849 and 58.7802 and 162.173; the PINP was 4703.95 and 10142.4 and 4202.52 and 5828.23 and 7980.56 and 6497.2 and 3099 and 3185.01. Further, in series [1], the RANKL was 183 and 172.091 and 217.546 and 201.182 and 228.454 and 173.909 and 175.727 and 170.273. Besides, the “cell proliferation and mineralization” value in series [2] was “increase cell proliferation and mineralization”. Besides, the “plasma concentration-time (fig. S2c)” value in series [3] (time 28 h) was 0.0028 and 0.0125 and 0.0083. Also, in series [3] (time 36 h), the “plasma concentration-time (fig. S2c)” value was 0.0011 and 0.0231 and 0.0066. For the same compound, in series [4], the BV/TV is 0.3016 and 0.3941 and 0.3094 and 0.3401 and 0.3769 and 0.3486 and 0.3669 and 0.2495; the Tb.N is 0.07827 and 0.1011 and 0.07596 and 0.08201 and 0.08333 and 0.08879 and 0.08221 and 0.07582; the Tb.Sp is 0.1812 and 0.1554 and 0.1695 and 0.1592 and 0.1377 and 0.1659 and 0.1419 and 0.2281; the Tb.Th was 3.854 and 3.899 and 4.073 and 4.146 and 4.523 and 3.9259 and 4.463 and 3.291. In series [4], the “BV/TV of OVX rats” value is “increased”. Also, in series [5] (conc. 0.08 μM), the “cell viability relative to 0 μM (fig. S5e)” value was 112.115 and 113.045. Also, the “cell viability relative to 0 μM (fig. S5e)” value in series [5] (conc. 0.28 μM) is 104.323 and 119.674. Also, the “cell viability relative to 0 μM (fig. S5e)” value in series [5] (conc. 0.92 μM) is 131.188 and 122. Also, the “cell viability relative to 0 μM (fig. S5e)” value in series [5] (conc. 3.03 μM) was 125.024 and 127.118. In addition, the “cell viability relative to 0 μM (fig. S5e)” value in series [5] (conc. 10 μM) is 125.722 and 115.72. In addition, in series [6], the viability at 24 h, 0.08 μM stood at 98.4%; the viability at 24 h, 0.28 μM is 118%; the viability at 24 h, 0.92 μM was 132%; the viability at 24 h, 3.03 μM was 127%. In series [6], the viability at 24 h, 10 μM amounted to 113% and the CC50 at 24 h turned out to be 93.9 µM.

Usually viability stands for a read-out of living cells in per cent, often relative to untreated cells. In general, CC50 refers to the concentration that lowers cell viability or growth by half.
